“And” between values parts separate entries of the source, which are not always exact repeats. Identical values can stand only once. Like-named read-outs stand apart in the source and are kept apart here.
What was measured:
[1] = system: vitamin K-dependent carboxylation; assay: in vitro rat hepatic microsomal vitamin K-dependent carboxylation of endogenous substrate, inhibition by vitamin K antagonists; type: biochemical; settings: for Slope (% Inhibition/Concentration), mean ± S.D.: slope parameter s of logistic function; for IO (percent inhibition when C = 0), mean: third fit parameter of logistic function
Description: (§1) The procedures for preparation of vitamin K-dependent carboxylase and assay of carboxylation were similar to those described in other laboratories (J. Biol. Chem. 251, 2770-2776; Biochim. Biophys. Acta 499, 181-193). Each animal was studied under both control and inhibitory conditions. The rats were rendered unconscious with nitrogen, the liver was quickly excised and minced in a total volume of 2.0 ml ice cold buffer I (0.25M sucrose, 0.025M imidazole, pH 7.20) per gram of liver. The liver was homogenized using 4 passes of a Teflon pestle (clearance 0.15-0.23 mm; Arthur H. Thomas Co., Philadelphia, Pa.) at 300 rpm. The post-mitochondrial supernatant and microsomal pellet were prepared by a published procedure (J. Biol. Chem. 251, 2770-2776). The microsomal pellet was resuspended in buffer II (0.25 M sucrose, 0.025M imidazole, 0.080M KCl, pH 7.20). This suspension supplied both the enzymes (vitamin K-dependent carboxylase and enzymes for vitamin K biotransformations) and endogenous substrates (precursors of vitamin K-dependent proteins) of interest. Microsomal suspension protein concentration was determined by the method of Bradford (Anal. Biochem. 72, 248-254) as described for Bio-Rad reagent and adjusted to approximately 15 mg/ml in buffer II.
(§2) Control, blank, and experimental reaction mixtures were made for each experiment. Control and blank reaction mixtures were made up with vitamin K and without vitamin K, respectively. Experimental reaction mixtures contained both vitamin K and a vitamin K antagonist. The control reaction mixture contained 3.00 ml of microsomal suspension, 0.81 ml of buffer II, 1.20 ml of an ATP-generating system (final concentrations: 1 mM ATP, 10 mM phosphocreatine, 2.5 mM Mg[acetate]2 ·4H2 O, 20 μg/ml creatine phosphokinase [52 U/ml]), 0.60 ml of NADH (final concentration 2 mM), 0.30 ml of dithiothreitol (final concentration 7 mM) dissolved in buffer II, 0.060 ml of NaH^14 CO3 (1.0 μCi/μl; added 0.5 min prior to reaction initiation), and at the time of reaction initiation 0.030 ml of vitamin K1 (final concentration 20 μg/ml) diluted in 0.85% sodium chloride solution. This vitamin K concentration is associated with maximal in vitro incorporation of added H^14 CO3 into vitamin K-dependent substrate proteins (J. Biol. Chem. 251, 2770-2776). The blank reaction mixture consisted of the same components except that vitamin K was replaced by an equal volume of isotonic saline. The experimental reaction mixtures were made up in the same way as the control reaction mixtures with the exceptions that: (1) a volume of buffer II was replaced by a volume of buffer II containing an inhibitor of vitamin K-dependent carboxylation, and (2) all individual volumes were two-thirds of those in the control reaction mixtures. […] Chloro-K1 was formulated as an oil-in-water emulsion with Tween 80 (5% v/v final concentration), while chloro-K3 was formulated as a suspension in Tween 80 (5% v/v final concentration) (Molecular Pharmacology 10, 373-380).
(§3) Reaction mixtures were incubated for 5 minutes at 100 excursions per minute in a reciprocating shaker water bath at 27° . After addition of vitamin K or saline, serial samples (0.45 ml each) were collected from each control and blank reaction tube at 2, 4, 6, 8, 10, 12, 14, 16, 30, 60, 90, and 120 minutes, and from each experimental reaction tube at 2, 4, 6, 8, 10, 12, 14, and 16 minutes. Each 0.45 ml sample was transferred to a tube containing 1 ml of ice-cold 10% TCA. The TCA-precipitated ^14 C-containing protein pellet was then prepared as previously described (J. Biol. Chem. 251, 2770-2776) and radioactivity was determined in an Intertechnique (Plaisir, France) liquid scintillation spectrometer using the external standard method of quench correction.

[2] = system: prothrombin complex activity; assay: in vivo prothrombin complex activity (PCA), its degradation and synthesis rate, from prothrombin time; parameters: species or system rat; settings: for PCA° (steady-state prothrombin complex activity before warfarin) / kd (first-order rate constant for degradation of PCA) / R°Syn (rate of synthesis of PCA): individual pretreated rat; for kd (first-order rate constant for degradation of PCA): after 2 mg/kg i.v. warfarin; for R°Syn (rate of synthesis of PCA): PCA° × kd; for reduction in R°Syn: vs normal rats
[3] = system: vitamin K-dependent carboxylation; assay: in vitro vitamin K-dependent carboxylation in liver microsomes of pretreated rats; type: biochemical, rat; settings: for Normalized P∞ / V/KM (intrinsic formation rate of carboxylated vitamin K-dependent proteins): individual pretreated rat; for V/KM (intrinsic formation rate of carboxylated vitamin K-dependent proteins): liver microsomes about 22 hours after warfarin
Description: as §1, §2
as §3, with “correction. […]” for “correction.”

[4] = system: prothrombin complex activity; settings: 2 mg/kg sodium warfarin i.v., approximately 19 hours prior to sacrifice; cited from earlier work
rats = settings: cited from earlier work
[5] = percent inhibition of vitamin K-dependent carboxylation vs concentration, logistic fit per animal, vitamin K1 20 μg/ml, 27°, read-out: IC50 (mean ± S.D.)
[6] = range among individual rats, read-out: IC50 (range)

## O=C1C(Cl)=CC(=Nc2ccc(O)cc2)C=C1Cl [2,6-DIP, 2,6-dichloroindophenol sodium]
[1]; [5]
  IC50: 116 ± 39.2 µM
[1]; range among individual rats
  Slope (% Inhibition/Concentration), range: 0.940-1.36 % Inhibition/Concentration
[1]; [6]
  IC50: 78.1 to 160 µM
[1]
  Slope (% Inhibition/Concentration), mean ± S.D.: 1.13 ± 0.174 % Inhibition/Concentration

## S=C=Nc1cccc2ccccc12 [ANIT, α-naphthylisothiocyanate]
[2]
  PCA° (steady-state prothrombin complex activity before warfarin): 56.1% and 56%
  kd (first-order rate constant for degradation of PCA): 3.19e-05 s⁻¹
  R°Syn (rate of synthesis of PCA): 155 %/day
  reduction in R°Syn: approximately 53%
[3]
  Normalized P∞: 15.59 dpm ^14 C incorporated/mg prot
  V/KM (intrinsic formation rate of carboxylated vitamin K-dependent proteins): 0.1104 min⁻¹
[3]; one treated rat vs normal
  increase in normalized P∞: approximately 50%

## ClC(Cl)(Cl)Cl [CCl4, carbon tetrachloride]
[2]; group average
  average turnover time of PCA: 3.27 ± 1.34 h
  biologic half-life of PCA: 2.27±0.94 hours
  kd, average of treated rats: 9.83e-05 ± 5.43e-05 s⁻¹
[2]; listed as OCl4
  kd (first-order rate constant for degradation of PCA): 6.92e-05 s⁻¹ and 0.0001609 s⁻¹ and 6.82e-05 s⁻¹
  R°Syn (rate of synthesis of PCA): 101 %/day and 137 %/day
  PCA° (steady-state prothrombin complex activity before warfarin): 16.9% and 9.9% and 23.4%
[2]
  reduction in R°Syn: approximately 62%
[3]
  Normalized P∞: 6.58 dpm ^14 C incorporated/mg prot and 9.86 dpm ^14 C incorporated/mg prot and 9.04 dpm ^14 C incorporated/mg prot
  V/KM (intrinsic formation rate of carboxylated vitamin K-dependent proteins): 0.0798 min⁻¹ and 0.0944 min⁻¹ and 0.1257 min⁻¹
[3]; two rats receiving 1.0 ml CCl4/kg
  reduction in V/KM: 20-30%

## C/C(=C\CC1=C(Cl)C(=O)c2ccccc2C1=O)CCC[C@H](C)CCC[C@H](C)CCCC(C)C [Chloro-K1, 2-Chloro-3-phytyl-1,4-naphthoquinone]
[1]; [5]
  IC50: 285 ± 89.3 µM
[1]; range among individual rats
  Slope (% Inhibition/Concentration), range: 0.469-0.898 % Inhibition/Concentration
[1]; [6]
  IC50: 171 to 393 µM
[1]
  Slope (% Inhibition/Concentration), mean ± S.D.: 0.634 ± 0.159 % Inhibition/Concentration

## O=C1C=C(Cl)C(=O)c2ccccc21 [Chloro-K3, 2-chloro-1,4-naphthoquinone]
[1]; in vitro rat hepatic vitamin K-dependent carboxylation system
  times more potent than warfarin: 45 times
[1]; [5]
  IC50: 146 ± 62.1 µM
[1]; range among individual rats
  Slope (% Inhibition/Concentration), range: 0.738-1.55 % Inhibition/Concentration
[1]; [6]
  IC50: 100 to 236 µM
[1]
  Slope (% Inhibition/Concentration), mean ± S.D.: 1.20 ± 0.340 % Inhibition/Concentration

## O=C1c2ccccc2C(=O)C1c1ccccc1 [Phenindione, phenindione]
[1]; [5]
  IC50: 19 ± 11.2 µM
[1]; range among individual rats
  Slope (% Inhibition/Concentration), range: 0.269-0.963 % Inhibition/Concentration
[1]; [6]
  IC50: 7.36 to 30.2 µM
[1]
  Slope (% Inhibition/Concentration), mean ± S.D.: 0.475 ± 0.330 % Inhibition/Concentration

## CCC1(c2ccccc2)C(=O)NC(=O)NC1=O [Phenobarbital, Phenobarbital sodium]
[2]
  PCA° (steady-state prothrombin complex activity before warfarin): 143.1% and 102.7%
  kd (first-order rate constant for degradation of PCA): 4.31e-05 s⁻¹ and 4.77e-05 s⁻¹
  R°Syn (rate of synthesis of PCA): 533 %/day and 423 %/day
[2]; two treated rats vs four normal rats
  average increase in PCA° beyond normal rats: 38%
[2]; two treated rats vs normal rats
  average increase in R°Syn beyond normal rats: 44%
[3]
  Normalized P∞: 4.92 dpm ^14 C incorporated/mg prot and 5.86 dpm ^14 C incorporated/mg prot
  V/KM (intrinsic formation rate of carboxylated vitamin K-dependent proteins): 0.1174 min⁻¹ and 0.1586 min⁻¹

## Oc1c(Cl)c(Cl)nc(Cl)c1Cl [TCP, 2,3,5,6-Tetrachloropyridin-4-ol]
[1]
  difference between IC50 of most potent (TCP) and least potent (warfarin) compound: approximately 5,000 fold
  Slope (% Inhibition/Concentration), mean ± S.D.: 0.884 ± 0.117 % Inhibition/Concentration
[1]; as printed in discussion text, read-out: average IC50
  IC50: 1.23 µM
[1]; [5]
  IC50: 1.23 ± 0.24 µM
[1]; range among individual rats
  Slope (% Inhibition/Concentration), range: 0.734-1.02 % Inhibition/Concentration
[1]; [6]
  IC50: 0.89 to 1.44 µM

## CC(=O)CC(c1ccccc1)c1c(O)c2ccccc2oc1=O (stereo not shown) [Warfarin, warfarin]
[1]; range among individual rats
  Slope (% Inhibition/Concentration), range: 0.637-2.20 % Inhibition/Concentration
[1]
  IO (percent inhibition when C = 0), mean: 8.89 ± 3.77%
[1]; listed as warfarin
  IO (percent inhibition when C = 0), mean: 8.9%
[1]; third fit parameter, range among rats
  IO (percent inhibition when C = 0), range: 2.74-13.1%
[1]; warfarin, logistic fit with IO as third parameter, read-out: IC50 (mean ± S.D.)
  IC50: 6630 ± 2850 µM
[4]
  plasma prothrombin complex activity at the time of sacrifice: ~6 % of normal
rats; in rats
  LD50 (may actually be as high as): 10 to 50 mg/kg
rats; intravenously administered, assumed value
  LD50 (assumed): 0.2 mg/kg

Source: patent US4734282A, “Rodenticidal compositions containing 1,4-naphthoquinone derivatives” (priority 1986, dated 1988)
